Article PMC10170162, “Identification of a new gibberellin receptor agonist, diphegaractin, by a cell-free chemical screening system” (Communications Biology, 2023)

Key:
Test in all cases: AlphaScreen GID1-DELLA interaction
Assay type in all cases: biochemical
VvGID1a (with VvDELLA2) = target: T1, VvGID1a (with VvDELLA2) (Vitis vinifera, UniProt A5BRG2); settings: agonist; partner VvDELLA2 (also VvDELLA1, VvDELLA3); dose series; pH 8.0, 26 °C; unpurified cell-free proteins
T1 construct: C-terminal biotinylated GID1 and C-terminal FLAG-tagged DELLA, wheat germ cell-free synthesis, unpurified; also tested with VvDELLA1 and VvDELLA3; with DELLA protein
T1 sequence (A5BRG2 1-344): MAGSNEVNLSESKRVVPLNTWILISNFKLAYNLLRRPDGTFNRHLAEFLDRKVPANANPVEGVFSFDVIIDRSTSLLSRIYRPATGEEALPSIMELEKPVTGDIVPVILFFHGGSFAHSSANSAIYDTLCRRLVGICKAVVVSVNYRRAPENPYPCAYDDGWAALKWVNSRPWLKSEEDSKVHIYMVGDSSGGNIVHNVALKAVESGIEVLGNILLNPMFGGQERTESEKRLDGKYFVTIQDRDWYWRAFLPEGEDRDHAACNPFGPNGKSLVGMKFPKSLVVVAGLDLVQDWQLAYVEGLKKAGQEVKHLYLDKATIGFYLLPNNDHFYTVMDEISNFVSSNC
T1 sequence (F6HH58 1-532 partner): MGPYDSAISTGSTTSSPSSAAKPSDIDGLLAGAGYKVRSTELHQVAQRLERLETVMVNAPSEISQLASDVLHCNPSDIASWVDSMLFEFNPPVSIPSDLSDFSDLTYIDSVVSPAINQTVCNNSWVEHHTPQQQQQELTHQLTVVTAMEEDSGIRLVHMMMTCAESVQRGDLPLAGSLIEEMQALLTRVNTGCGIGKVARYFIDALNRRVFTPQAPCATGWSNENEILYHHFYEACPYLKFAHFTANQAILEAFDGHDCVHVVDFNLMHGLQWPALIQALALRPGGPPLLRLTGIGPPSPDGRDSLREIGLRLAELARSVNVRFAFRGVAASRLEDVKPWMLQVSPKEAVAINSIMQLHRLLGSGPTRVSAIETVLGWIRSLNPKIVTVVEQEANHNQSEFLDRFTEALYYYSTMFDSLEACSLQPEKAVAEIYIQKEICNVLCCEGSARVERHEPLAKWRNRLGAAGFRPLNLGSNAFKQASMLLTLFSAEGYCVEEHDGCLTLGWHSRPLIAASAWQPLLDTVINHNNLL

VvGID1b (with VvDELLA2) = target: T2, VvGID1b (with VvDELLA2) (Vitis vinifera, UniProt F6HQ36); settings: agonist; partner VvDELLA2 (also VvDELLA1); dose series; pH 8.0, 26 °C; unpurified cell-free proteins
T2 construct: C-terminal biotinylated GID1 and C-terminal FLAG-tagged DELLA, wheat germ cell-free synthesis, unpurified; cDNA from grape leaf mRNA; with DELLA protein
T2 sequence (F6HQ36 1-344): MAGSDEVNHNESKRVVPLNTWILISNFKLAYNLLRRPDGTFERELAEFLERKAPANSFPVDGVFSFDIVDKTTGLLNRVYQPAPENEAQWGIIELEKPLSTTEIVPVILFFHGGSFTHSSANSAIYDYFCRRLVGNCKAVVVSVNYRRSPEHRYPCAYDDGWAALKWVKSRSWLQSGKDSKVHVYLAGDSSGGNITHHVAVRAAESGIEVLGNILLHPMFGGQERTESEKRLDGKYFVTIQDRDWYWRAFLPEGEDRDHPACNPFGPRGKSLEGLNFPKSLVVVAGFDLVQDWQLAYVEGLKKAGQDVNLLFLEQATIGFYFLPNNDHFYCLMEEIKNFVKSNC
T2 sequence (F6HH58 1-532 partner): T1 sequence (F6HH58 1-532 partner)

OsGID1 (with OsSLR) = target: T3, OsGID1 (with OsSLR) (Oryza sativa, UniProt Q6L545, V326I/L330F); settings: agonist; partner OsSLR; pH 8.0, 26 °C; unpurified cell-free proteins
T3 construct: gene GID1; C-terminal biotinylated GID1 and C-terminal FLAG-tagged DELLA, wheat germ cell-free synthesis, unpurified; with DELLA protein SLR1
T3 sequence (Q6L545 1-354 V326I/L330F): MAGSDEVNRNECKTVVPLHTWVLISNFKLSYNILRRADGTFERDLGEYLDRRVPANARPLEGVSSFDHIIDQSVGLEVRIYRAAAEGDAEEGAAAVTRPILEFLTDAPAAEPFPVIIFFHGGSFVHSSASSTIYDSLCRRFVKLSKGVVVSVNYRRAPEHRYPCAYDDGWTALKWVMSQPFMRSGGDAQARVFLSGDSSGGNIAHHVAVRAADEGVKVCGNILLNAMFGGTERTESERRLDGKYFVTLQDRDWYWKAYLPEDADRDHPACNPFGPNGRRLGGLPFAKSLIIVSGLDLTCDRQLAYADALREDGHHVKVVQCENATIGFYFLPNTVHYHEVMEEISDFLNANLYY
T3 sequence (Q7G7J6 1-625 partner): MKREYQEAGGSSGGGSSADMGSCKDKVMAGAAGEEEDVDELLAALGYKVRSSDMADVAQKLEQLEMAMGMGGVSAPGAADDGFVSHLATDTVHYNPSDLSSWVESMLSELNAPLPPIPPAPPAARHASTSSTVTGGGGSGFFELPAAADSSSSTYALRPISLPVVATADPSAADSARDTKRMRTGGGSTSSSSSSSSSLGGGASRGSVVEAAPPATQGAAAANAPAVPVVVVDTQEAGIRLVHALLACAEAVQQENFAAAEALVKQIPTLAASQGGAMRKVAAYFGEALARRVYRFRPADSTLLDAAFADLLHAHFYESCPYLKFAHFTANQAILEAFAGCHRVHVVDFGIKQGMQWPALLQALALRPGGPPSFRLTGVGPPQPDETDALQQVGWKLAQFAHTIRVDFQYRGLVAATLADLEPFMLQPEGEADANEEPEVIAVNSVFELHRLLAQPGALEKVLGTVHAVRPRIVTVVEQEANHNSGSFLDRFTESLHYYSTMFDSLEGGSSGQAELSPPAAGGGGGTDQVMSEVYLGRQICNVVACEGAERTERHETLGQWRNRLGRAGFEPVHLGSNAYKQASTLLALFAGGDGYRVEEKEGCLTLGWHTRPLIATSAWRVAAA

AtGID1c (with AtRGA) = target: T4, AtGID1c (with AtRGA) (Arabidopsis thaliana, UniProt Q940G6); settings: agonist; partner AtRGA (also AtGAI); pH 8.0, 26 °C; unpurified cell-free proteins
T4 construct: gene GID1C; C-terminal biotinylated GID1 and C-terminal FLAG-tagged DELLA, wheat germ cell-free synthesis, unpurified; also tested with AtGAI; with DELLA protein RGA
T4 sequence (Q940G6 2-344): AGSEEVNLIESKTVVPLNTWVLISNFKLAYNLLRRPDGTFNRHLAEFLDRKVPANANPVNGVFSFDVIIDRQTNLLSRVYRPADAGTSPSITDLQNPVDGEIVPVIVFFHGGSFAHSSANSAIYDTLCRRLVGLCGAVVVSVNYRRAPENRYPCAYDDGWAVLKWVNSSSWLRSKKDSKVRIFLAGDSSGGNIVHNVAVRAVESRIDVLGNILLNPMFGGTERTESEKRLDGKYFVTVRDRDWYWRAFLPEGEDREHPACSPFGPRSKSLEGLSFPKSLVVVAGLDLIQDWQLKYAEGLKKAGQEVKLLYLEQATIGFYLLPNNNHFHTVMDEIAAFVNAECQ
T4 sequence (Q9SLH3 1-587 partner): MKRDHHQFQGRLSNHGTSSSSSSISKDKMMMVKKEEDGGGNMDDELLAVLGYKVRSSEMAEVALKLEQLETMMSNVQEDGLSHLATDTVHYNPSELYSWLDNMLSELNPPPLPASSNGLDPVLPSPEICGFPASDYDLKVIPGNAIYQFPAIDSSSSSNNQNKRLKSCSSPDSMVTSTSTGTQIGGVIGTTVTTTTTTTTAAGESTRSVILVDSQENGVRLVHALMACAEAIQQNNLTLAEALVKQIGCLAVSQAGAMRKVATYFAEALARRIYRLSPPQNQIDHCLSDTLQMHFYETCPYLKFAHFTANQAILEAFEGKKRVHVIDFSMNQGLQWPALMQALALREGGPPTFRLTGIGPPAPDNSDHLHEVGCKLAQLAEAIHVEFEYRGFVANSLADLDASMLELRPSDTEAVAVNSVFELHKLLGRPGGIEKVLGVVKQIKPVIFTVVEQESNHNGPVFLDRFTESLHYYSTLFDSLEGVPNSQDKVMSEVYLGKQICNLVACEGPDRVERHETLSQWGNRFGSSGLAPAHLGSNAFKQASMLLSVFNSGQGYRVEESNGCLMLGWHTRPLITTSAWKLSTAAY

AtGID1b (with AtRGA) = target: T5, AtGID1b (with AtRGA) (Arabidopsis thaliana, UniProt Q9LYC1); settings: agonist; partner AtRGA; pH 8.0, 26 °C; unpurified cell-free proteins
T5 construct: gene GID1B; C-terminal biotinylated GID1 and C-terminal FLAG-tagged DELLA, wheat germ cell-free synthesis, unpurified; with DELLA protein RGA
T5 sequence (Q9LYC1 2-358): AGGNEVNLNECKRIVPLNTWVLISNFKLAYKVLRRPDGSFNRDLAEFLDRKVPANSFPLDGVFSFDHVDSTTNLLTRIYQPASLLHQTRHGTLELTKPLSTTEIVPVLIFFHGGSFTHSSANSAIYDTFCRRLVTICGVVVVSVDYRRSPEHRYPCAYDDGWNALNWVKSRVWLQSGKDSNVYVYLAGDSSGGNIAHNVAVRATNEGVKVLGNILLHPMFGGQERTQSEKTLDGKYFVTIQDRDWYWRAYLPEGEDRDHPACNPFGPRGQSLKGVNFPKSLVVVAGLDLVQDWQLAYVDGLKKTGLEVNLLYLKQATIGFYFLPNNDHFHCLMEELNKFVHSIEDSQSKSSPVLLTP
T5 sequence (Q9SLH3 1-587 partner): T4 sequence (Q9SLH3 1-587 partner)

| SMILES | AlphaScreen GID1-DELLA interaction (VvGID1a (with VvDELLA2)) | AlphaScreen GID1-DELLA interaction (VvGID1b (with VvDELLA2)) | AlphaScreen GID1-DELLA interaction (OsGID1 (with OsSLR)) | AlphaScreen GID1-DELLA interaction (AtGID1c (with AtRGA)) | AlphaScreen GID1-DELLA interaction (AtGID1b (with AtRGA)) |
| --- | --- | --- | --- | --- | --- |
| C=C1C[C@]23C[C@H]1CC[C@H]2[C@@]12CC[C@H](O)[C@@](C)(C(=O)O1)[C@H]2[C@@H]3C(=O)O [GA4] | VvGID1a exhibited GA-dependent interactions with VvDELLA1-3 | VvGID1b also exhibited active and inactive GA-dependent interactions with VvDELLA1 and VvDELLA2 |  |  |  |
| C=C1C[C@]23C[C@@]1(O)CC[C@H]2[C@@]12CCC[C@@](C)(C(=O)O1)[C@H]2[C@@H]3C(=O)O [GA20] | Although a much higher concentration was required, inactive GAs also induced these interactions |  |  |  |  |
| CCCCCC(C(=O)O)(c1ccccc1)c1ccccc1 [diphegaractin, 2,2-diphenylheptanoic acid] |  | diphegaractin induced two interactions, VvGID1b–VvDELLA1 and VvGID1b–VvDELLA2 | OsGID1 V326I/L330F mutant increased the interaction with OsSLR by diphegaractin | AtGID1c with AtRGA and AtGAI | it promoted the interaction of AtGID1b with AtRGA |
| C=C1C[C@]23C[C@@]1(O)CC[C@H]2[C@@]12C=C[C@H](O)[C@@](C)(C(=O)O1)[C@H]2[C@@H]3C(=O)O [GA3] | VvGID1a exhibited GA-dependent interactions with VvDELLA1-3 | VvGID1b also exhibited active and inactive GA-dependent interactions with VvDELLA1 and VvDELLA2 | swapping had little effect on the interaction between DELLA proteins and GA receptors by GA3 |  |  |
| C=C1C[C@]23C[C@H]1CC[C@H]2[C@@]12CCC[C@@](C)(C(=O)O1)[C@H]2[C@@H]3C(=O)O [GA9] | Although a much higher concentration was required, inactive GAs also induced these interactions |  |  |  |  |
| C=C1C[C@]23C[C@H]1CC[C@H]2[C@@]12C=C[C@H](O)[C@@](C)(C(=O)O1)[C@H]2[C@@H]3C(=O)O [GA7] | VvGID1a exhibited GA-dependent interactions with VvDELLA1-3 | VvGID1b also exhibited active and inactive GA-dependent interactions with VvDELLA1 and VvDELLA2 |  |  |  |
| C=C1C[C@]23C[C@@]1(O)CC[C@H]2[C@@]12CC[C@H](O)[C@@](C)(C(=O)O1)[C@H]2[C@@H]3C(=O)O [GA1] | VvGID1a exhibited GA-dependent interactions with VvDELLA1-3 | VvGID1b also exhibited active and inactive GA-dependent interactions with VvDELLA1 and VvDELLA2 |  |  |  |
